Read-outs that look alike come from different tables or passages of the source.
Assays:
HeLa cells = experiment: Histone H3 (Ser10) phosphorylation ELISA, abrogation of camptothecin-induced G2 arrest (CHK-1 cellular assay); type: cell-based; conditions: HeLa cells, camptothecin 8 hrs, then compound with nocodozole 16 hours, read-out: EC50
Experimental: The Histone H3 phosphorylation ELISA assay detects cells entering mitosis and represents the primary in vitro cell-based assay used to measure the cellular potency of compounds in abrogating the G2 check point induced by DNA damage in HeLa cells or MiaPaCa cells. The candidate substances were assayed for potency in their ability to inhibit camptothecin-induced G2 arrest, as measured by an increase in Histone H3 phosphorylation on Ser10, a marker of entry into mitosis.
Tissue culture plates were seeded with HeLa cells or MiaPaCa Cells and allowed to attach overnight. The cells were then treated with camptothecin to induce DNA damage for 8 hrs. Candidate substances or diluent were then added in the presence of nocodozole for 16 hours. […] The fresh whole cell lysates were then thawed and added to the ELISA plate with shaking for 3 hours. Between all subsequent steps plates were washed 4 times with PBST. Biotinylated phospho Histone H3 (ser10) detection antibody was added for 1 hour, followed by addition of horseradish peroxidase-linked streptavidin secondary antibody for 1 hour. Color development of the antibody was performed with addition of TMB substrate and incubation for 2 minutes on a plate shaker. […] EC50 values were calculated by sigmoid curve fitting using a four-parameter analysis.
Under the “Ki” column, data entries in the format of “%” are percent inhibition data where no Ki data is available. Data entry under the “EC50” column with an * are data obtained using Mia Paca-2 cells rather than HeLa cells. Data is not available where noted as n/a.

CHK1 (kinase domain) = biological target: T1, CHK1 (kinase domain) (Homo sapiens, UniProt O14757); experiment: CHK1 Ki determination, spectrophotometric coupled (pyruvate kinase/lactate dehydrogenase) assay; type: biochemical; conditions: CHK-1 kinase domain; for Ki: 150 uM ATP, 125 uM Syntide 2; for percent inhibition (where no Ki data is available): inhibitor concentration not given
T1 construct: a solution containing 1 nM of CHK1 (kinase domain)
T1 sequence (O14757 9-265 limits assumed): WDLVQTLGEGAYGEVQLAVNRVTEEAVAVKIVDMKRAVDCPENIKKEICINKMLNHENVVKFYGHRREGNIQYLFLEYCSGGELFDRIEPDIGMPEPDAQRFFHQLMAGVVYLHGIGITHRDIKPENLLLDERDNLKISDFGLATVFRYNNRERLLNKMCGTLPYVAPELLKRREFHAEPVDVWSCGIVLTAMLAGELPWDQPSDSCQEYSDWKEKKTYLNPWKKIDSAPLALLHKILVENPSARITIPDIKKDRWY
Summary of the method: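 Ki values, or % inhibition where no Ki was obtained, come from a tight-binding fit that uses active enzyme concentration and the ATP Km. Rates were followed as NADH loss at 340 nm, with ADP production coupled via pyruvate kinase and lactate dehydrogenase. Reactions with ATP (150 uM) and Syntide 2 (125 uM) were started after the CHK1 kinase domain had stood with inhibitor for 15 min.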

Compound	EC50 (HeLa cells; Homo sapiens, HeLa) [nM]	Ki (CHK1 (kinase domain)) [nM]	percent inhibition (where no Ki data is available) (CHK1 (kinase domain)) [%^]	EC50 (HeLa cells; Homo sapiens) [nM]	EC50 (HeLa cells) [nM]
CC(C)c1cn2c(-c3cncc(N[C@@H]4C[C@@H]5CN[C@H]4C5)n3)cnc2s1 [Example 127, (1S,4R,6R)-N-[6-(2-isopropylimidazo[2,1-b][1,3]thiazol-5-yl)pyrazin-2-yl]-2-azabicyclo[2.2.1]heptan-6-amine]	1060	8.91	–	–	–
Fc1ccc2ncc(-c3cncc(N[C@H]4CNC[C@H]4F)n3)n2c1 [Example 90, 6-(6-fluoroimidazo[1,2-a]pyridin-3-yl)-N-[(3S,4R)-4-fluoropyrrolidin-3-yl]pyrazin-2-amine]	≥ 10000	70.5	–	–	–
COc1ccn2c(-c3cncc(N[C@@H]4C[C@@H]5CN[C@H]4C5)n3)cnc2c1 [Example 124, (1S,4R,6R)-N-[6-(7-methoxyimidazo[1,2-a]pyridin-3-yl)pyrazin-2-yl]-2-azabicyclo[2.2.1]heptan-6-amine]	≥ 10000	2.29	–	–	–
Clc1ccc2c(-c3cncc(N[C@@H]4CCCNC4)n3)cnn2c1 [Example 117, 6-(6-chloropyrazolo[1,5-a]pyridin-3-yl)-N-[(3R)-piperidin-3-yl]pyrazin-2-amine]	32.9	0.802	–	–	–
c1ccn2c(-c3cncc(N[C@@H]4CCNC4)n3)cnc2c1 [Example 10, 6-Imidazo[1,2-a]pyridin-3-yl-N-[(3R)-pyrrolidin-3-yl]pyrazin-2-amine]	244	23.6	–	–	–
FC1(F)CCNCC1Nc1cncc(-c2cnc3ccccn23)n1 (stereo not drawn) [Example 11, N-(4,4-difluoropiperidin-3-yl)-6-(imidazo[1,2-a]pyridin-3-yl)pyrazin-2-amine]	62.1	–	101	–	–
C[C@@H]1CC[C@@H](Nc2cncc(-c3cnc4ccccn34)n2)CN1 [Example 31, 6-imidazo[1,2-a]pyridin-3-yl-N-[(3R,6R)-6-methylpiperidin-3-yl]pyrazin-2-amine]	183	27.3	–	–	–
c1cnc2c(-c3cncc(N[C@@H]4CCNC4)n3)cnn2c1 [Example 121, 6-pyrazolo[1,5-a]pyrimidin-3-yl-N-[(3R)-pyrrolidin-3-yl]pyrazin-2-amine]	≥ 10000	–	16.5	–	–
CCc1cn2c(-c3cncc(N[C@@H]4CCCNC4)n3)cnc2s1 [Example 107, 6-(2-ethylimidazo[2,1-b][1,3]thiazol-5-yl)-N-[(3R)-piperidin-3-yl]pyrazin-2-amine]	31.6	2.85	–	–	–
c1ccn2c(-c3cncc(N[C@H]4CCNC4)n3)cnc2c1 [Example 48, 6-Imidazo[1,2-a]pyridin-3-yl-N-[(3S)-pyrrolidin-3-yl]pyrazin-2-amine]	600	165	–	–	–
c1cnc2c(-c3cncc(N[C@@H]4CCCNC4)n3)cnn2c1 [Example 23, N-[(3R)-piperidin-3-yl]-6-pyrazolo[1,5-a]pyrimidin-3-ylpyrazin-2-amine]	–	–	36.1	≥ 10000	–
CC1(COc2ccc3c(c2)ncn3-c2cncc(N[C@@H]3CCCNC3)n2)COC1 [Example 47, 6-{5-[(3-Methyloxetan-3-yl)methoxy]-1H-benzimidazol1-yl}-N-[(3R)-piperidin-3-yl]pyrazin-2-amine]	52.2	24.6	–	–	–
C[C@@H]1CNC[C@@H]1Nc1cncc(-c2cnn3ccccc23)n1 [Example 119, N-[(3R,4R)-4-methylpyrrolidin-3-yl]-6-pyrazolo[1,5-a]pyridin-3-ylpyrazin-2-amine]	26.7	5.38	–	–	–
Fc1ccc2ncc(-c3cncc(N[C@@H]4C[C@@H]5CN[C@H]4C5)n3)n2c1 [Example 126, (1S,4R,6R)-N-[6-(6-fluoroimidazo[1,2-a]pyridin-3-yl)pyrazin-2-yl]-2-azabicyclo[2.2.1]heptan-6-amine]	140	5.88	–	–	–
Cc1ccn2c(-c3cncc(N[C@@H]4CCCNC4)n3)cnc2c1 [Example 38, 6-(7-Methylimidazo[1,2-a]pyridin-3-yl)-N-[(3R)-piperidin-3-yl]pyrazin-2-amine]	40	8	–	–	–
FC(F)(F)c1ccn2c(-c3cncc(N[C@@H]4CCNC4)n3)cnc2c1 [Example 53, N-[(3R)-pyrrolidin-3-yl]-6-[7-(trifluoromethyl)imidazo[1,2-a]pyridin-3-yl]pyrazin-2-amine]	459	37	–	–	–
COc1ccn2c(-c3cncc(N[C@@H]4CCNC4)n3)cnc2c1 [Example 52, 6-(7-Methoxyimidazo[1,2-a]pyridin-3-yl)-N-[(3R)-pyrrolidin-3-yl]pyrazin-2-amine]	72.9	9.55	–	–	–

Now from value to compound:

EC50 (HeLa cells; Homo sapiens, HeLa) [nM]	Ki (CHK1 (kinase domain)) [nM]	percent inhibition (where no Ki data is available) (CHK1 (kinase domain)) [%^]	EC50 (HeLa cells; Homo sapiens) [nM]	EC50 (HeLa cells) [nM]	Compound
≥ 10000	6.77	–	–	–	CCOc1ccc2ncn(-c3cncc(N[C@@H]4CCCNC4)n3)c2c1 [Example 149, 6-(6-ethoxy-1H-benzimidazol-1-yl)-N-[(3R)-piperidin-3-yl]pyrazin-2-amine]
32.2	4.5	–	–	–	FC1(F)CCNC[C@@H]1Nc1cncc(-c2cnc3ccccn23)n1 [Example 249, N-[(3S)-4,4-difluoropiperidin-3-yl]-6-(imidazo[1,2-a]pyridin-3-yl)pyrazin-2-amine]
966	52	–	–	–	CC(Oc1ccn2c(-c3cncc(N[C@@H]4CCNC4)n3)cnc2c1)C(F)(F)F (stereo partly drawn) [Example 136, N-[(3R)-pyrrolidin-3-yl]-6-[7-(2,2,2-trifluoro-1-methylethoxy)imidazo[1,2-a]pyridin-3-yl]pyrazin-2-amine]
5.6	1.47	–	–	–	COc1ccn2c(-c3cncc(N[C@H]4CNC[C@H]4c4ccccc4)n3)cnc2c1 [Example 152, 6-(7-methoxyimidazo[1,2-a]pyridin-3-yl)-N-[(3R,4R)-4-phenylpyrrolidin-3-yl]pyrazin-2-amine]
–	4.79	–	–	123	CCc1cn2c(-c3cncc(N[C@@H]4CCCN[C@@H]4C)n3)cnc2s1 [Example 166, 6-(2-ethylimidazo[2,1-b][1,3]thiazol-5-yl)-N-[(2R,3R)-2-methylpiperidin-3-yl]pyrazin-2-amine]
–	11.1	–	–	414	CCc1cn2c(-c3cncc(N[C@@H]4CCCN[C@H]4C)n3)cnc2s1 [Example 170, 6-(2-ethylimidazo[2,1-b][1,3]thiazol-5-yl)-N-[(2S,3R)-2-methylpiperidin-3-yl]pyrazin-2-amine]
≥ 10000	9.7	–	–	–	C[C@@H]1NCCC[C@@H]1Nc1cncc(-c2cnc3ccccn23)n1 [Example 139, 6-imidazo[1,2-a]pyridin-3-yl-N-[(2S,3S)-2-methylpiperidin-3-yl]pyrazin-2-amine]
≥ 10000	16.9	–	–	–	CCc1cn2c(-c3cncc(N[C@H]4CCCN[C@@H]4C)n3)cnc2s1 [Example 174, 6-(2-ethylimidazo[2,1-b][1,3]thiazol-5-yl)-N-[(2R,3S)-2-methylpiperidin-3-yl]pyrazin-2-amine]
303	56.4	–	–	–	C[C@H]1NCCC[C@H]1Nc1cncc(-c2cnc3cc(C#N)ccn23)n1 [Example 262, 3-(6-{[(2R,3R)-2-methylpiperidin-3-yl]amino}pyrazin-2-yl)imidazo[1,2-a]pyridine-7-carbonitrile]
≥ 10000	–	21.7	–	–	C[C@H]1NCCC[C@@H]1Nc1cncc(-c2cnc3cnccn23)n1 [Example 171, 6-(imidazo[1,2-a]pyrazin-3-yl)-N-[(2R,3S)-2-methylpiperidin-3-yl]pyrazin-2-amine]
19.2	1.07	–	–	–	Cc1cn2c(-c3cncc(N[C@@H]4CNC[C@@H]4C)n3)cnc2s1 [Example 140, 6-(2-methylimidazo[2,1-b][1,3]thiazol-5-yl)-N-[(3S,4S)-4-methylpyrrolidin-3-yl]pyrazin-2-amine]
53	5.4	–	–	–	Cc1cn2c(-c3cncc(N[C@H]4CNC[C@H]4CF)n3)cnc2s1 [Example 183, N-[(3R,4R)-4-(fluoromethyl)pyrrolidin-3-yl]-6-(2-methylimidazo[2,1-b][1,3]thiazol-5-yl)pyrazin-2-amine]
77.8	10	–	–	–	C[C@H]1CNC[C@H]1Nc1cncc(-c2cnc3ccc(F)cn23)n1 [Example 141, 6-(6-fluoroimidazo[1,2-a]pyridin-3-yl)-N-[(3S,4S)-4-methylpyrrolidin-3-yl]pyrazin-2-amine]

— patent US8518952B2, “6 substituted 2-heterocyclylamino pyrazine compounds as CHK-1 inhibitors” (Pfizer Inc., priority 2008, dated 2013)
